Results from paper PMC9671962 (Communications Biology, 2022).
“And” between values parts separate entries of the source, which are not always exact repeats. Equal entries are not always repeated.

Tests used:
Format in all cases: in vivo
[1] = Mouse weight over time / tolerability in PDX efficacy study (Fig. 1f)
Method: (§1) The use of 2 mice per arm was based on the previously reported statistical analysis. PDX tumors were implanted into the right flank of 5 to 6-weeks old female mice weighing about 20–25 grams. […] Two additional dose levels of 12, and 24 MBq/kg/fraction were assessed in a subset of models and were administered as stated above. In two models treated at the 24 MBq/kg/fraction dose level we re-challenged tumor response at the time of tumor progression with an additional 4 dose fractions at 24 MBq/kg/fraction given twice weekly. Doses were prepared in 500 µL total volume. An equal volume of saline was used for the vehicle group. Tumors were measured using a digital caliper at the initiation of the study and two times per week during the treatment period. Tumor volumes were calculated as volume = ([…]∗0.5236)/1000. Weights were obtained twice weekly and mice were monitored daily for signs of toxicity. […] Tumor response was assessed by best response defined as greatest reduction in tumor volume following the last dose and is presented as percent change in tumor volume. Event-free survival was determined by area over the curve method that calculates the time to tumor event, which was defined as tumors reaching or exceeding a size ≥ 2 cm^3.

[2] = tested on: high-risk neuroblastoma patient-derived xenograft (PDX) mouse models; assay: Pre-clinical efficacy study in 11 neuroblastoma PDX mouse models (grouped analysis)
Method: (§2) Patient demographics and genetic characteristics are listed in (Supplementary Tables 1, 2)[17]. The maximum tolerated dose (MTD) was determined to be 36 MBq/kg administered by intra-peritoneal injection twice weekly for a total of 4 dose fractions and this fractionated regimen was used in all studies (Supplementary Fig. 1)[18],[19]. […] Nine of 11 PDX models were MYCN amplified (Fig. 1b), which is a hallmark of high-risk neuroblastoma. Tumor response was measured as the maximum percent decrease in tumor volume after treatment and event-free survival (EFS) was measured by the area over the curve method with tumor events pre-defined by tumor growth exceeding 2 cm[3],[18].
as §1
(§3) Animal studies were performed in female mice due to the lack of sex-related differences for [^211At]PTT tolerability from initial dose response studies performed in female and male mice. Female mice were chosen due to their underlying behavior towards other study subjects that reduced nonstudy-related causes for decreased wellness. Pre-clinical efficacy studies were performed through “single mouse testing” to more closely recapitulate a clinical trial. […] Number size for treatment groups was determined by model tumor growth reproducibility, which was previously shown to have less than 5% normal variation with at least two animals. Statistical tests for tumor response and event-free survival (EFS) were performed as a grouped analysis that included all tumor models treated at each respective dose level (n = 2 per model per dose level). Statistical differences between treatment groups for tumor response was performed by paired-model T-test that compared reduction in tumor volume for the 36 MBq/kg dose level vs. 24 MBq/kg or 12 MBq/kg. Event free survival was measured by area over the curve method to quantify time to event, which was set as tumor growth exceeding 2 cm[3],[19]. Differences in EFS were tested across all treated models for each respective dose level, and against untreated controls, by paired-model ANOVA analysis. Associations of drug target expression and response were performed by linear regression analysis of EFS and PARP1 mRNA expression. Genetic signatures were visually presented as a function of EFS and no statistical tests were applied. Blood and marrow toxicity studies were performed with n = 5 sample sizes and powered to detect >20% differences between untreated controls and treated animals. Results were tested for significance by one-way ANOVA comparison from untreated controls. Marrow colony formation assays were performed in replicates of 2 for each mouse subject, dependent on marrow isolation, and all replicates are included in final analyses. […]

COG-N-453x = assay: Pre-clinical efficacy study, COG-N-453x PDX; conditions: single mouse
Method: as §2, §1, §3

[3] = 12 MBq/kg/fraction x 4 fractions
[4] = 24 MBq/kg/fraction x 4 fractions
[5] = 36 MBq/kg/fraction x 4 fractions

For O=C1NCCn2c(-c3ccc([211At])cc3)nc3cccc1c32 [[^211At]PTT, Astatine-211-parthanatine], the “Percent Body Weight from study initiation” value (from here on “Percent Body Weight”) ([1]; COG415-325, 12 MBq/kg/fraction x 4, 0.4 Weeks) was 100.48% and 95.77%, the “Percent Body Weight” value ([1]; COG415-325, 12 MBq/kg/fraction x 4, 1 Weeks) was 100.97% and 94.84% and the “Percent Body Weight” value ([1]; COG415-325, 12 MBq/kg/fraction x 4, 1.4 Weeks) was 100% and 92.96%. For the same compound, the “Percent Body Weight” value ([1]; COG415-325, 12 MBq/kg/fraction x 4, 2 Weeks) was 97.58% and 92.96%, the “Percent Body Weight” value ([1]; COG415-325, 12 MBq/kg/fraction x 4, 2.4 Weeks) was 103.86% and 98.12% and the “Percent Body Weight” value ([1]; COG415-325, 12 MBq/kg/fraction x 4, 3 Weeks) was 102.42% and 99.53%. The “Percent Body Weight” value ([1]; COG415-325, 12 MBq/kg/fraction x 4, 3.4 Weeks) was 108.7% and 102.35%, the “Percent Body Weight” value ([1]; COG415-325, 12 MBq/kg/fraction x 4, 4 Weeks) was 111.11% and 110.33% and the “Percent Body Weight” value ([1]; COG415-650, 24 MBq/kg/fraction x 4, 0.4 Weeks) was 102.79% and 99.52%. The “Percent Body Weight” value ([1]; COG415-650, 24 MBq/kg/fraction x 4, 1 Weeks) was 96.74% and 92.82%, the “Percent Body Weight” value ([1]; COG415-650, 24 MBq/kg/fraction x 4, 1.4 Weeks) was 92.56% and 90.43% and the “Percent Body Weight” value ([1]; COG415-650, 24 MBq/kg/fraction x 4, 2 Weeks) was 90.23% and 87.56%. For the same compound, the “Percent Body Weight” value ([1]; COG415-650, 24 MBq/kg/fraction x 4, 2.4 Weeks) was 93.49% and 92.34%, the “Percent Body Weight” value ([1]; COG415-650, 24 MBq/kg/fraction x 4, 3 Weeks) was 100.93% and 99.04% and the “Percent Body Weight” value ([1]; COG415-650, 24 MBq/kg/fraction x 4, 3.4 Weeks) was 100% and 96.65%. The “Percent Body Weight” value ([1]; COG415-650, 24 MBq/kg/fraction x 4, 4 Weeks) was 102.33% and 99.04%, the “Percent Body Weight” value ([1]; COG415-650, 24 MBq/kg/fraction x 4, 4.4 Weeks) was 106.05% and 102.39% and the “Percent Body Weight” value ([1]; COG415-650, 24 MBq/kg/fraction x 4, 5 Weeks) was 107.44% and 96.65%. For the same compound, the “Percent Body Weight” value ([1]; COG415-650, 24 MBq/kg/fraction x 4, 5.4 Weeks) was 111.63% and 101.91%, the “Percent Body Weight” value ([1]; COG415-650, 24 MBq/kg/fraction x 4, 6 Weeks) was 104.31% and the “Percent Body Weight” value ([1]; COG415-975, 36 MBq/kg/fraction x 4, 0 Weeks) was 100%. For the same compound, the “Percent Body Weight” value ([1]; COG415-975, 36 MBq/kg/fraction x 4, 0.4 Weeks) was 94.07% and 98.23%, the “Percent Body Weight” value ([1]; COG415-975, 36 MBq/kg/fraction x 4, 1 Weeks) was 84.75% and 90.71% and the “Percent Body Weight” value ([1]; COG415-975, 36 MBq/kg/fraction x 4, 1.4 Weeks) was 80.51% and 90.27%. For the same compound, the “Percent Body Weight” value ([1]; COG415-975, 36 MBq/kg/fraction x 4, 2 Weeks) was 72.88% and 79.65%, the “Percent Body Weight” value ([1]; COG415-975, 36 MBq/kg/fraction x 4, 2.4 Weeks) was 77.97% and 83.63% and the “Percent Body Weight” value ([1]; COG415-975, 36 MBq/kg/fraction x 4, 3 Weeks) was 80.08% and 81.86%. The “Percent Body Weight” value ([1]; COG415-975, 36 MBq/kg/fraction x 4, 3.4 Weeks) was 75.42% and 81.42%, the “Percent Body Weight” value ([1]; COG415-975, 36 MBq/kg/fraction x 4, 4 Weeks) was 80.93% and 80.09% and the “Percent Body Weight” value ([1]; COG415-975, 36 MBq/kg/fraction x 4, 4.4 Weeks) was 82.2% and 82.3%. The “Percent Body Weight” value ([1]; COG415-975, 36 MBq/kg/fraction x 4, 5 Weeks) was 88.56% and 88.05%, the “Percent Body Weight” value ([1]; COG415-975, 36 MBq/kg/fraction x 4, 5.4 Weeks) was 88.98% and 91.59% and the “Percent Body Weight” value ([1]; COG415-975, 36 MBq/kg/fraction x 4, 6.1 Weeks) was 96.19% and 92.48%. For the same compound, the “Percent Body Weight” value ([1]; COG415-975, 36 MBq/kg/fraction x 4, 6.4 Weeks) was 94.07% and 90.71%, the “Percent Body Weight” value ([1]; COG415-975, 36 MBq/kg/fraction x 4, 7 Weeks) was 99.58% and 93.36% and the “Percent Body Weight” value ([1]; COG415-975, 36 MBq/kg/fraction x 4, 7.4 Weeks) was 101.27% and 93.36%. The “Percent Body Weight” value ([1]; COG415-975, 36 MBq/kg/fraction x 4, 8 Weeks) was 95.48%, the “Percent Body Weight” value ([1]; COG415-975, 36 MBq/kg/fraction x 4, 8.9 Weeks) was 100.44% and the “Percent Body Weight” value ([1]; COG415-975, 36 MBq/kg/fraction x 4, 9.4 Weeks) was 100.88%. The “Percent Body Weight” value ([1]; COG415-975, 36 MBq/kg/fraction x 4, 10 Weeks) was 101.77%, the “Percent Body Weight” value ([1]; COG415-975, 36 MBq/kg/fraction x 4, 10.4 Weeks) was 103.98% and the “Percent Body Weight” value ([1]; COG415-975, 36 MBq/kg/fraction x 4, 11 Weeks) was 107.08%. For the same compound, the “Percent Body Weight” value ([1]; COG415-975, 36 MBq/kg/fraction x 4, 12 Weeks) was 105.31%, the “Percent Body Weight” value ([1]; COG519-325, 12 MBq/kg/fraction x 4, 0 Weeks) was 100% and the “Percent Body Weight” value ([1]; COG519-325, 12 MBq/kg/fraction x 4, 0.4 Weeks) was 100% and 97.98%. The “Percent Body Weight” value ([1]; COG519-325, 12 MBq/kg/fraction x 4, 1 Weeks) was 93.83% and 96.97%, the “Percent Body Weight” value ([1]; COG519-650, 24 MBq/kg/fraction x 4, 0 Weeks) was 100% and the “Percent Body Weight” value ([1]; COG519-650, 24 MBq/kg/fraction x 4, 0.4 Weeks) was 97.69% and 96.86%. For the same compound, the “Percent Body Weight” value ([1]; COG519-650, 24 MBq/kg/fraction x 4, 1 Weeks) was 95.37% and 97.38%, the “mice censored from EFS analysis due to weight loss >20%” value ([1]; MTD, two out of 22 mice, >50 days from treatment) was 9% and the “Percent Body Weight” value ([1]; NBSD-650, 24 MBq/kg/fraction x 4, 2.6 Weeks) was 90.4306% and 91.4027%. For the same compound, the “Percent Body Weight” value ([1]; NBSD-650, 24 MBq/kg/fraction x 4, 3 Weeks) was 94.7368% and 92.3077%, the “Percent Body Weight” value ([1]; NBSD-650, 24 MBq/kg/fraction x 4, 3.6 Weeks) was 95.2153% and 92.7602% and the “Percent Body Weight” value ([1]; NBSD-650, 24 MBq/kg/fraction x 4, 4 Weeks) was 98.0861%. For the same compound, the “Percent Body Weight” value ([1]; NBSD-975, 36 MBq/kg/fraction x 4, 2.6 Weeks) was 84.141% and 86.3636%, the “Percent Body Weight” value ([1]; NBSD-975, 36 MBq/kg/fraction x 4, 3 Weeks) was 81.9383% and 87.8788% and the “Percent Body Weight” value ([1]; NBSD-975, 36 MBq/kg/fraction x 4, 3.6 Weeks) was 81.4978% and 88.3838%. The “dose-limiting toxicity observed (number)” value ([1]; NE-EBC1x tumor-bearing mouse re-challenged with 24 MBq/kg fractionated regimen) was “One”, the “treated mice that maintained a healthy weight throughout the study (≥100 ± 20% body weight)” value ([1]; all dose levels) was 43 of 46 and the “median EFS” value ([2]; 12 MBq/kg dose level) was 23 days. For the same compound, the “mouse tumors showing progressing disease after treatment” value ([2]; 12 MBq/kg dose level (COG-N-415x n = 1, COG-N-453x n = 1)) was “two”, the “average decrease in tumor volume” value ([2]; 12 MBq/kg, n = 8, 4 PDX models) was 27.15 ± 42.2% and the “median EFS” value ([2]; 24 MBq/kg dose level) was 46 days. The “reduction in tumor volume after therapy re-challenge” value ([2]; 24 MBq/kg re-challenge, COG-N-426x-Felix and NB-EBC1x, n = 2) was 100%, the “average decrease in tumor volume” value ([2]; 24 MBq/kg, n = 14, 7 PDX models) was 92.6 ± 8.1% and the “average decrease in tumor volume” value ([2]; 36 MBq/kg (MTD), n = 22, 11 PDX models) was 98.4 ± 3.3%. For the same compound, the “median event free survival (EFS)” value ([2]; 36 MBq/kg/fraction x4 (MTD)) was 74 days, the “mice with no measurable tumor/disease at end of study” value ([2]; MTD, 6/20 mice, >95 days (b1), >90 days) was 30% and the “complete tumor response, share of tumors” value ([2]; MTD, 18 of 22 tumors) was 81.8%. For the same compound, the “EFS by AOC method” value (COG-N-453x; [3]) was 19.5598 days and 22.4877 days, the “Tumor response (% growth from study initiation at ~ 200 mm3)” value (COG-N-453x; [3]) was 25% and -63.158% and the “EFS by AOC method” value (COG-N-453x; [4]) was 43.7943 days and 33.4459 days. For the same compound, the “Tumor response (% growth from study initiation at ~ 200 mm3)” value (COG-N-453x; [4]) was -100% and -90.323%, the “EFS by AOC method” value (COG-N-453x; [5]) was 48.6067 days and 52.9347 days and the “Tumor response (% growth from study initiation at ~ 200 mm3)” value (COG-N-453x; [5]) was -100%.
